# In PubChem BioAssay (NCI):
#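 Protocol summary: plate cells (96-well), add compound at 5 concentrations, incubate 48 h, interpolate endpoints linearly. TGI: total growth inhibition.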
# Assays:
# Experiment in all cases: NCI-60 cell line screen, 48 h
# [1] = test system: U251 CNS
# [2] = test system: T-47D breast
# [3] = test system: OVCAR-5 ovarian
# [4] = test system: HOP-62 NSCLC
# [5] = test system: KM12 colon
# [6] = test system: OVCAR-8 ovarian
# [7] = test system: K-562 leukemia
# [8] = test system: OVCAR-3 ovarian
# [9] = test system: NCI-H460 lung
# [10] = test system: MCF7 breast
# [11] = test system: UACC-62 melanoma
# [12] = test system: SK-MEL-5 melanoma
# [13] = test system: HOP-92 NSCLC
# [14] = test system: TK-10 renal
# [15] = test system: UO-31 renal
# [16] = test system: SF-268 CNS
# [17] = test system: CCRF-CEM leukemia
# [18] = test system: 786-0 renal
# [19] = test system: SN12C renal
# [20] = test system: CAKI-1 renal
# [21] = test system: EKVX NSCLC
# [22] = test system: SNB-19 CNS
# [23] = test system: M14 melanoma
# [24] = test system: IGROV1 ovarian
# [25] = test system: COLO 205 colon
# [26] = test system: MOLT-4 leukemia
# [27] = test system: MALME-3M melanoma
# [28] = test system: HS 578T breast
# [29] = test system: HCT-15 colon
# [30] = test system: SF-295 CNS
# [31] = test system: NCI-H522 lung
# [32] = test system: HCT-116 colon
# [33] = test system: UACC-257 melanoma
# [34] = test system: DU-145 prostate
# [35] = test system: SNB-75 CNS
# [36] = test system: SK-MEL-2 melanoma
# [37] = test system: ACHN renal
# [38] = test system: A498 renal
# [39] = test system: SW-620 colon
# [40] = test system: LOX IMVI melanoma
# [41] = test system: HT29 colon
# [42] = test system: PC-3 prostate
# [43] = test system: NCI-H23 lung
# [44] = test system: A549 NSCLC
# [45] = test system: RXF 393 renal
# [46] = test system: MDA-N
# [47] = test system: SR leukemia
# [48] = test system: NCI-H226 lung
# [49] = test system: SK-MEL-28 melanoma
# [50] = test system: NCI/ADR-RES ovarian
# [51] = test system: MDA-MB-231 breast
# [52] = test system: RPMI-8226 leukemia
# [53] = test system: SK-OV-3 ovarian
# [54] = test system: OVCAR-4 ovarian
# [55] = test system: HCC-2998 colon
# [56] = test system: MDA-MB-435
# [57] = test system: SF-539 CNS
# [58] = test system: BT-549 breast
# [59] = test system: HL-60(TB) leukemia
smiles,measurement,setting,value
C=CCC1NCCC2=C1C(S(=O)(=O)c1ccc(C)cc1)c1ccccc12 (configuration not stated),TGI,[1],24 µM
same,TGI,[2],26.1 µM
same,TGI,[3],33.2 µM
same,TGI,[4],28.2 µM
same,TGI,[5],22.6 µM
same,TGI,[6],30.5 µM
same,TGI,[7],63.4 µM
same,TGI,[8],26 µM
same,TGI,[9],26.2 µM
same,TGI,[10],22 µM
same,TGI,[11],24.6 µM
same,TGI,[12],27.6 µM
same,TGI,[13],25.7 µM
same,TGI,[14],32.7 µM
same,TGI,[15],20.5 µM
same,TGI,[16],34.7 µM
same,TGI,[17],28.6 µM
same,TGI,[18],25.7 µM
same,TGI,[19],28.5 µM
same,TGI,[20],19.6 µM
same,TGI,[21],33.5 µM
same,TGI,[22],33.2 µM
same,TGI,[23],26.8 µM
same,TGI,[24],23.3 µM
same,TGI,[25],4.29 µM
same,TGI,[26],> 100 µM
same,TGI,[27],24 µM
same,TGI,[28],35.1 µM
same,TGI,[29],27.8 µM
same,TGI,[30],27.1 µM
same,TGI,[31],26 µM
same,TGI,[32],23.6 µM
same,TGI,[33],> 53.4 µM
same,TGI,[34],24.3 µM
same,TGI,[35],18.9 µM
same,TGI,[36],27.1 µM
same,TGI,[37],24.3 µM
same,TGI,[38],33.2 µM
same,TGI,[39],29.4 µM
same,TGI,[40],23.1 µM
same,TGI,[41],29.4 µM
same,TGI,[42],22.2 µM
same,TGI,[43],36.4 µM
same,TGI,[44],29.2 µM
same,TGI,[45],17.6 µM
same,TGI,[46],20.2 µM
same,TGI,[47],38.4 µM
same,TGI,[48],35.9 µM
same,TGI,[49],26.6 µM
same,TGI,[50],28.5 µM
same,TGI,[51],25.5 µM
same,TGI,[52],27.8 µM
same,TGI,[53],33.2 µM
same,TGI,[54],25.7 µM
same,TGI,[55],3.6 µM
same,TGI,[56],17.5 µM
COc1cc(N(C)C)ccc1/C=c1/c2ccccc2n2c1cc(-c1ccccc1)[n+]2C,TGI,[57],0.873 µM
same,TGI,[4],1.03 µM
same,TGI,[5],0.418 µM
same,TGI,[7],> 100 µM
same,TGI,[8],1.4 µM
same,TGI,[9],1.23 µM
same,TGI,[14],1.83 µM
same,TGI,[17],1.55 µM
same,TGI,[18],1.22 µM
same,TGI,[20],2.33 µM
same,TGI,[21],2.21 µM
same,TGI,[22],1.58 µM
same,TGI,[23],1.45 µM
same,TGI,[25],0.37 µM
same,TGI,[58],1.18 µM
same,TGI,[30],1.49 µM
same,TGI,[59],1.26 µM
same,TGI,[33],1.66 µM
same,TGI,[34],1.26 µM
same,TGI,[35],1.16 µM
same,TGI,[36],2.03 µM
same,TGI,[37],1.31 µM
same,TGI,[38],6.76 µM
same,TGI,[39],2.02 µM
same,TGI,[42],1.1 µM
same,TGI,[44],1.38 µM
same,TGI,[45],1.37 µM
same,TGI,[46],1.26 µM
same,TGI,[48],2.11 µM
same,TGI,[49],2.04 µM
same,TGI,[50],> 100 µM
same,TGI,[52],1.3 µM
same,TGI,[53],1.44 µM
same,TGI,[54],2.02 µM
same,TGI,[55],1.76 µM
same,TGI,[56],1.32 µM
